# Assay results reported in patent US20250100968A1, “BICYCLIC-HETEROCYCLE DERIVATIVES AND RELATED USES” (CENTESSA PHARMACEUTICALS (UK) LIMITED, priority 2022, published 2025).
# Biological target: T1, human orexin type 2 receptor (hOX2R) (Homo sapiens, UniProt O43614)
# T1 sequence (O43614 1-444): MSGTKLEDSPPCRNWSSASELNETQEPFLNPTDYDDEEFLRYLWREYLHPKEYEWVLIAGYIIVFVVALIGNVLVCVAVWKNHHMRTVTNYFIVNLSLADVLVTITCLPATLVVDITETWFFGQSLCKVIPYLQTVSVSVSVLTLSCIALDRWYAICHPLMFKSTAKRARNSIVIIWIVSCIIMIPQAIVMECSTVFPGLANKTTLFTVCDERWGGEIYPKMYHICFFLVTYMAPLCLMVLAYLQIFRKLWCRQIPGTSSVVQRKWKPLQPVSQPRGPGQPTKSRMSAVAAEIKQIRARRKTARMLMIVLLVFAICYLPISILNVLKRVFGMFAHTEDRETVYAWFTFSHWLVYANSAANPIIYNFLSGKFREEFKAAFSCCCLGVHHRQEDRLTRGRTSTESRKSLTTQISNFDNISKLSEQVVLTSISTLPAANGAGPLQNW
# Assay: cell-based
# 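Also: agonist activity in CHO cells stably expressing hOX2R, intracellular Ca2+ via Calcium 5 dye fluorescence area over 2 min, buffer-only as 0% and 10 nM orexin A as 100%.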
# Protocol: Measurement of orexin type 2 receptor agonist activity. […] After removal of the medium, 50 μl of assay buffer 1 (0.1% bovine serum albumin (Sigma Aldrich), 20 mM HEPES (Molecular Dimensions), 250 mM probenecid (Sigma Aldrich), 1× Calcium 5 dye (Molecular Devices) in Hank's balanced salt solution (Invitrogen)) was added, and the cells were incubated for 60 min under the conditions of 37° C., 5% CO2. A test compound was dissolved in dimethyl sulfoxide (Sigma Aldrich) to 10 mM, and then diluted with assay buffer 2 (20 mM HEPES, Hank's balanced salt solution, 0.1% bovine serum albumin). For the reaction, a test compound solution (10 μl) was added using Fluorescent Imaging Plate Reader TETRA (FLIPR TETRA: manufactured by Molecular Devices), a fluorescence value (excitation wavelength 488 nm, measurement wavelength 570 nm) of each well was measured every one second for 2 min, and the agonist activity was determined using the area of the fluorescence value as an indicator of intracellular Ca^2+ concentration. The agonist activity of the test compound was calculated assuming that the fluorescence value of the well added with only the dilution buffer was 0% and the fluorescence value of the well added with 10 nM human orexin A (Tocris) buffer was 100%.
row,SMILES,EC50 [nM]
1,"CC[C@](C)(O)C(=O)N1CC2(CC2)[C@H](NS(=O)(=O)CF)[C@@H]1Cc1cccc(-c2cccc(F)c2)c1F [compound 33, N-((6S,7S)-6-((2,3′-difluoro-[1,1′-biphenyl]-3-yl)methyl)-5-((S)-2-hydroxy-2-methylbutanoyl)-5-azaspiro[2.4]heptan-7-yl)-1-fluoromethanesulfonamide]",0.0631 to 1
2,"CC(C)(F)CNC(=O)N1CC2(CC2)[C@H](NS(=O)(=O)CF)[C@@H]1Cc1cc(F)cc(-c2ccccc2)c1F [compound 51, (6S,7S)-6-((2,5-difluoro-[1,1′-biphenyl]-3-yl)methyl)-N-(2-fluoro-2-methylpropyl)-7-((fluoromethyl)sulfonamido)-5-azaspiro[2.4]heptane-5-carboxamide]",0.0631 to 1
3,"O=C([C@H]1CCCO1)N1CC2(CC2)[C@H](NS(=O)(=O)CF)[C@@H]1Cc1cccc(-c2cc(F)cc(F)c2)c1F [compound 42, 1-fluoro-N-((6S,7S)-5-((R)-tetrahydrofuran-2-carbonyl)-6-((2,3′,5′-trifluoro-[1,1′-biphenyl]-3-yl)methyl)-5-azaspiro[2.4]heptan-7-yl)methanesulfonamide]",1 to 10
4,"C[C@@H](F)S(=O)(=O)N[C@@H]1[C@H](Cc2cccc(-c3cc(F)cc(F)c3)c2F)N(C(=O)C2CCO2)CC12CC2 (mixture of isomers) [compound 43, (S)-1-fluoro-N-((6S,7S)-5-((RS)-oxetane-2-carbonyl)-6-((2,3′,5′-trifluoro-[1,1′-biphenyl]-3-yl)methyl)-5-azaspiro[2.4]heptan-7-yl)ethane-1-sulfonamide]",1 to 10
5,"CC(C)(F)CNC(=O)N1CC2(CC2)[C@H](NS(=O)(=O)CF)[C@@H]1Cc1cccc(-c2cc(F)cc(F)c2)c1F [compound 37, (6S,7S)-N-(2-fluoro-2-methylpropyl)-7-((fluoromethyl)sulfonamido)-6-((2,3′,5′-trifluoro-[1,1′-biphenyl]-3-yl)methyl)-5-azaspiro[2.4]heptane-5-carboxamide]",1 to 10
6,"O=C(NCC(F)F)N1CC2(CC2)[C@H](NS(=O)(=O)CF)[C@@H]1Cc1cccc(-c2cc(F)cc(F)c2)c1F [compound 15, (6S,7S)-N-(2,2-difluoroethyl)-7-((fluoromethyl)sulfonamido)-6-((2,3′,5′-trifluoro-[1,1′-biphenyl]-3-yl)methyl)-5-azaspiro[2.4]heptane-5-carboxamide]",1 to 10
7,"C[C@H](C#N)C(=O)N1CC2(CC2)[C@H](NS(=O)(=O)C(F)F)[C@@H]1Cc1cccc(-c2cc(F)cc(F)c2)c1F [compound 49, N-((6S,7S)-5-((R)-2-cyanopropanoyl)-6-((2,3′,5′-trifluoro-[1,1′-biphenyl]-3-yl)methyl)-5-azaspiro[2.4]heptan-7-yl)-1,1-difluoromethanesulfonamide]",1 to 10
8,"O=C(NCC(F)F)N1CC2(CC2)[C@H](NS(=O)(=O)C(F)F)[C@@H]1Cc1cc(F)cc(-c2cc(F)cc(F)c2)c1F [compound 25, (6S,7S)-N-(2,2-difluoroethyl)-7-((difluoromethyl)sulfonamido)-6-((2,3′,5,5′-tetrafluoro-[1,1′-biphenyl]-3-yl)methyl)-5-azaspiro[2.4]heptane-5-carboxamide]",0.0631 to 1
9,"C[C@@](O)(CF)C(=O)N1CC2(CC2)[C@H](NS(=O)(=O)C(F)F)[C@@H]1Cc1cccc(-c2cc(F)cc(F)c2)c1F [compound 1, 1,1-difluoro-N-((6S,7S)-5-((S)-3-fluoro-2-hydroxy-2-methylpropanoyl)-6-((2,3′,5′-trifluoro-[1,1′-biphenyl]-3-yl)methyl)-5-azaspiro[2.4]heptan-7-yl)methanesulfonamide]",1 to 10
10,"N#CC1(C(=O)N2CC3(CC3)[C@H](NS(=O)(=O)CF)[C@@H]2Cc2cc(F)cc(-c3ccccc3)c2F)CCC1 [compound 13, N-((6S,7S)-5-(1-cyanocyclobutane-1-carbonyl)-6-((2,5-difluoro-[1,1′-biphenyl]-3-yl)methyl)-5-azaspiro[2.4]heptan-7-yl)-1-fluoromethanesulfonamide]",0.0631 to 1
11,"COCC1(C(=O)N2CC3(CC3)[C@H](NS(C)(=O)=O)[C@@H]2Cc2cccc(-c3ccccc3)c2F)CC1 [compound 26, N-((6S,7S)-6-((2-fluoro-[1,1′-biphenyl]-3-yl)methyl)-5-(1-(methoxymethyl)cyclopropane-1-carbonyl)-5-azaspiro[2.4]heptan-7-yl)methanesulfonamide]",0.0631 to 1
12,"C[C@@H](C#N)C(=O)N1CC2(CC2)[C@H](NS(=O)(=O)C(F)F)[C@@H]1Cc1cccc(-c2ccccc2)c1F [compound 41, N-((6S,7S)-5-((S)-2-cyanopropanoyl)-6-((2-fluoro-[1,1′-biphenyl]-3-yl)methyl)-5-azaspiro[2.4]heptan-7-yl)-1,1-difluoromethanesulfonamide]",1 to 10
13,"CC(C)S(=O)(=O)N[C@@H]1[C@H](Cc2cc(F)cc(-c3cc(F)cc(F)c3)c2F)N(C(=O)[C@H]2CCO2)CC12CC2 [compound 20, N-((6S,7S)-5-((R)-oxetane-2-carbonyl)-6-((2,3′,5,5′-tetrafluoro-[1,1′-biphenyl]-3-yl)methyl)-5-azaspiro[2.4]heptan-7-yl)propane-2-sulfonamide]",0.0631 to 1
14,"C[C@H](C#N)C(=O)N1CC2(CC2)[C@H](NS(=O)(=O)C(F)F)[C@@H]1Cc1cccc(-c2ccccc2)c1F [compound 40, N-((6S,7S)-5-((R)-2-cyanopropanoyl)-6-((2-fluoro-[1,1′-biphenyl]-3-yl)methyl)-5-azaspiro[2.4]heptan-7-yl)-1,1-difluoromethanesulfonamide]",1 to 10

# Further lines, results first:
row,EC50 [nM],SMILES
1,0.0631 to 1,"C[C@@](O)(CF)C(=O)N1CC2(CC2)[C@H](NS(=O)(=O)CF)[C@@H]1Cc1cc(F)cc(-c2ccccc2)c1F [compound 72, N-((6S,7S)-6-((2,5-difluoro-[1,1′-biphenyl]-3-yl)methyl)-5-((S)-3-fluoro-2-hydroxy-2-methylpropanoyl)-5-azaspiro[2.4]heptan-7-yl)-1-fluoromethanesulfonamide]"
2,0.0631 to 1,"CC(C)(F)CNC(=O)N1CC2(CC2)[C@H](NS(=O)(=O)C(F)F)[C@@H]1Cc1cccc(-c2cccc(F)c2)c1F [compound 71, (6S,7S)-6-((2,3′-difluoro-[1,1′-biphenyl]-3-yl)methyl)-7-((difluoromethyl)sulfonamido)-N-(2-fluoro-2-methylpropyl)-5-azaspiro[2.4]heptane-5-carboxamide]"
3,1 to 10,"C[C@H](F)S(=O)(=O)N[C@@H]1[C@H](Cc2cc(F)cc(-c3cc(F)cc(F)c3)c2F)N(C(=O)[C@H]2CCO2)CC12CC2 [compound 58, (R)-1-fluoro-N-((6S,7S)-5-((R)-oxetane-2-carbonyl)-6-((2,3′,5,5′-tetrafluoro-[1,1′-biphenyl]-3-yl)methyl)-5-azaspiro[2.4]heptan-7-yl)ethane-1-sulfonamide]"
4,0.0631 to 1,"N#CC1(C(=O)N2CC3(CC3)[C@H](NS(=O)(=O)CF)[C@@H]2Cc2cc(F)cc(-c3ccccc3)c2F)CC1 [compound 76, N-((6S,7S)-5-(1-cyanocyclopropane-1-carbonyl)-6-((2,5-difluoro-[1,1′-biphenyl]-3-yl)methyl)-5-azaspiro[2.4]heptan-7-yl)-1-fluoromethanesulfonamide]"
5,0.0631 to 1,"N#C[C@]1(C(=O)N2CC3(CC3)[C@H](NS(=O)(=O)CF)[C@@H]2Cc2cccc(-c3ccccc3)c2F)C[C@H](F)C1 [compound 54, N-((6S,7S)-5-((1r,3S)-1-cyano-3-fluorocyclobutane-1-carbonyl)-6-((2-fluoro-[1,1′-biphenyl]-3-yl)methyl)-5-azaspiro[2.4]heptan-7-yl)-1-fluoromethanesulfonamide]"
6,1 to 10,"COC[C@@H](F)C(=O)N1CC2(CC2)[C@H](NS(=O)(=O)C(F)F)[C@@H]1Cc1cccc(-c2cc(F)cc(F)c2)c1F [compound 66, 1,1-difluoro-N-((6S,7S)-5-((R)-2-fluoro-3-methoxypropanoyl)-6-((2,3′,5′-trifluoro-[1,1′-biphenyl]-3-yl)methyl)-5-azaspiro[2.4]heptan-7-yl)methanesulfonamide]"
7,1 to 10,"CC(C)NC(=O)N1CC2(CC2)[C@H](NS(=O)(=O)CF)[C@@H]1Cc1cccc(-c2ccccc2)c1F [compound 82, (6S,7S)-6-((2-fluoro-[1,1′-biphenyl]-3-yl)methyl)-7-((fluoromethyl)sulfonamido)-N-isopropyl-5-azaspiro[2.4] heptane-5-carboxamide]"
8,1 to 10,"C[C@@](O)(C(=O)N1CC2(CC2)[C@H](NS(=O)(=O)C(F)F)[C@@H]1Cc1cccc(-c2ccccc2)c1F)C1CC1 [compound 75, N-((6S,7S)-5-((S)-2-cyclopropyl-2-hydroxypropanoyl)-6-((2-fluoro-[1,1′-biphenyl]-3-yl)methyl)-5-azaspiro[2.4]heptan-7-yl)-1,1-difluoromethanesulfonamide]"
9,0.0631 to 1,"CO[C@@H](C)C(=O)N1CC2(CC2)[C@H](NS(=O)(=O)CF)[C@@H]1Cc1cccc(-c2cc(F)cc(F)c2)c1F [compound 69, 1-fluoro-N-((6S,7S)-5-((S)-2-methoxypropanoyl)-6-((2,3′,5′-trifluoro-[1,1′-biphenyl]-3-yl)methyl)-5-azaspiro[2.4]heptan-7-yl)methanesulfonamide]"
10,1 to 10,"C[C@](O)(C(=O)N1CC2(CC2)[C@H](NS(=O)(=O)CF)[C@@H]1Cc1cc(F)cc(-c2ccccc2)c1F)C(F)F [compound 84, N-((6S,7S)-5-((S)-3,3-difluoro-2-hydroxy-2-methylpropanoyl)-6-((2,5-difluoro-[1,1′-biphenyl]-3-yl)methyl)-5-azaspiro[2.4]heptan-7-yl)-1-fluoromethanesulfonamide]"
